{
  "source": "ChEMBL document CHEMBL5465560",
  "about": "“Selectivity Literature for EUbOPEN Chemogenomic Library” (2024)",
  "key": {"[1]": {"biological_target": "Ribosomal protein S6 kinase alpha-5 (Homo sapiens) (UniProt O75582)", "sequence (O75582 whole entry, looked up)": "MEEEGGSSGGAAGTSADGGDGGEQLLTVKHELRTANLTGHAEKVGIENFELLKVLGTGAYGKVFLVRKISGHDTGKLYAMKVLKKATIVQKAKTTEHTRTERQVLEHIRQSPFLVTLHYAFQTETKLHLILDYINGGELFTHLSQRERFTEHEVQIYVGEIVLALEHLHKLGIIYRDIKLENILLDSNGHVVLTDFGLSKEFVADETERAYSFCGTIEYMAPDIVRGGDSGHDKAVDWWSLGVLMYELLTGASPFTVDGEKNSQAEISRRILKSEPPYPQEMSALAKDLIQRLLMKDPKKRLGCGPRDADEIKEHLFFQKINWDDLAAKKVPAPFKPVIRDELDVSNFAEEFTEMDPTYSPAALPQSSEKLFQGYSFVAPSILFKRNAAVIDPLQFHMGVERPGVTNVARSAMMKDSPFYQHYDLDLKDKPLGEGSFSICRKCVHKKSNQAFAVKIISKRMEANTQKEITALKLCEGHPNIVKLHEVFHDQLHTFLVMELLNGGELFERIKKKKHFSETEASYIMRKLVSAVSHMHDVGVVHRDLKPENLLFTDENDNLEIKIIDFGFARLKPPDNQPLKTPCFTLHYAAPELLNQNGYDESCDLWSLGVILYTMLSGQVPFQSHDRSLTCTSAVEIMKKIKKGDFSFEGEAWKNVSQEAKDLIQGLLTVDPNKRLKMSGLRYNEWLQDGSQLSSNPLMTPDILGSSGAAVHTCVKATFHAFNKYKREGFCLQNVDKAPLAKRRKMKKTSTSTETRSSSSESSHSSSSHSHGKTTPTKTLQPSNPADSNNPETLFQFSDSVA", "assay": "Selectivity interaction (Kinase screening (Nanosyn)) EUB0000604a RPS6KA5"}, "[2]": {"biological_target": "Receptor tyrosine-protein kinase erbB-4 (Homo sapiens, UniProt Q15303)", "sequence (Q15303 whole entry)": "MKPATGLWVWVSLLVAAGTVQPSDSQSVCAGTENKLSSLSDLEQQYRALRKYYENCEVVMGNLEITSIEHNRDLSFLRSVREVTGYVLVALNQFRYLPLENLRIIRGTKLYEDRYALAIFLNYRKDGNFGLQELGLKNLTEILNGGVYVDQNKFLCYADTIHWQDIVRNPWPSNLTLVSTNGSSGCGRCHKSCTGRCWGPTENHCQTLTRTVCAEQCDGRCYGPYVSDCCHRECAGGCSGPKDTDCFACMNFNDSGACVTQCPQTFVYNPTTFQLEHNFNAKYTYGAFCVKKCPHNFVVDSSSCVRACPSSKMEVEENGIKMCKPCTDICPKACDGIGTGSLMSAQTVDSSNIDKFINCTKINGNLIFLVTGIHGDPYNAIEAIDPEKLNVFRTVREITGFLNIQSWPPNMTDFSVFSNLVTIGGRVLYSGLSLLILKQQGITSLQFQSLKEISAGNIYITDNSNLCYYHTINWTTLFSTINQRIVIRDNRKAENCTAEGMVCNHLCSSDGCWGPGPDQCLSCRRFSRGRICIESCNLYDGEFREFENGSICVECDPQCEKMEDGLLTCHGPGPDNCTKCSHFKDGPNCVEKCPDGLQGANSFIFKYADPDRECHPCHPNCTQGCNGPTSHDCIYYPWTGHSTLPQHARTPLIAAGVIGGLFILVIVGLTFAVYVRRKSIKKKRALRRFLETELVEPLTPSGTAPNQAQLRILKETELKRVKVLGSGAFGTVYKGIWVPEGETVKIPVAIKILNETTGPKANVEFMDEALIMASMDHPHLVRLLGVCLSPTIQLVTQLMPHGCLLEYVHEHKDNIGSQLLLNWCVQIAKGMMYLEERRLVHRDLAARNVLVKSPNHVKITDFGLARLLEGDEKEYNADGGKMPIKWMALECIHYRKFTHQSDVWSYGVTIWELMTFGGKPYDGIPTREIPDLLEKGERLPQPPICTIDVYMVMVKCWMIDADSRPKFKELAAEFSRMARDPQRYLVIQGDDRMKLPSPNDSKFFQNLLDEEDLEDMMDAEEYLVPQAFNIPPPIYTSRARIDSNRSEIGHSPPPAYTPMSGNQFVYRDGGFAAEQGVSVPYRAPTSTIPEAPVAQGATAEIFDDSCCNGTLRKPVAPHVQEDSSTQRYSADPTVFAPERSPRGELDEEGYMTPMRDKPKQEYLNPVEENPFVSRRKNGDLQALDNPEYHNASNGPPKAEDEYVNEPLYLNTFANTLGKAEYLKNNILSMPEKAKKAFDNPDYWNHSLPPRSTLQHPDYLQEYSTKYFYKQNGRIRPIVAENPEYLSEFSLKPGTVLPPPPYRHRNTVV", "assay": "Selectivity interaction (Ambit KINOMEscan and KiNATiv profiling in Jurkat cells) EUB0000090b ERBB4", "format": "cell-based", "conditions": "at 1 µM"}, "[3]": {"biological_target": "Dual specificity mitogen-activated protein kinase kinase 1 (Homo sapiens, UniProt Q02750)", "sequence (Q02750 whole entry)": "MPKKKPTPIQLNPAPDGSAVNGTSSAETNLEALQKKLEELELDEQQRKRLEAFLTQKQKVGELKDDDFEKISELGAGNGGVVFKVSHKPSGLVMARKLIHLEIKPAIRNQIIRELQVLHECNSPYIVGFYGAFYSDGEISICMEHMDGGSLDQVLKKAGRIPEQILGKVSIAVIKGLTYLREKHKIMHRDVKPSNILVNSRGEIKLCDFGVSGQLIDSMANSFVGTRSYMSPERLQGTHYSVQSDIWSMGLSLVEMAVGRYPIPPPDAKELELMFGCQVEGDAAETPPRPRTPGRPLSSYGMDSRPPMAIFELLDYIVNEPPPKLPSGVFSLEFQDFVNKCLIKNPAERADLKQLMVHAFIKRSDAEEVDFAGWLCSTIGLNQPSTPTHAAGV", "assay": "Selectivity interaction (KinomeScan (DiscoverX)) EUB0000695a MAP2K1", "conditions": "at 100 nM"}, "[4]": {"biological_target": "T1, Cyclin-G-associated kinase (Homo sapiens) (UniProt O14976)", "T1 sequence (whole entry)": "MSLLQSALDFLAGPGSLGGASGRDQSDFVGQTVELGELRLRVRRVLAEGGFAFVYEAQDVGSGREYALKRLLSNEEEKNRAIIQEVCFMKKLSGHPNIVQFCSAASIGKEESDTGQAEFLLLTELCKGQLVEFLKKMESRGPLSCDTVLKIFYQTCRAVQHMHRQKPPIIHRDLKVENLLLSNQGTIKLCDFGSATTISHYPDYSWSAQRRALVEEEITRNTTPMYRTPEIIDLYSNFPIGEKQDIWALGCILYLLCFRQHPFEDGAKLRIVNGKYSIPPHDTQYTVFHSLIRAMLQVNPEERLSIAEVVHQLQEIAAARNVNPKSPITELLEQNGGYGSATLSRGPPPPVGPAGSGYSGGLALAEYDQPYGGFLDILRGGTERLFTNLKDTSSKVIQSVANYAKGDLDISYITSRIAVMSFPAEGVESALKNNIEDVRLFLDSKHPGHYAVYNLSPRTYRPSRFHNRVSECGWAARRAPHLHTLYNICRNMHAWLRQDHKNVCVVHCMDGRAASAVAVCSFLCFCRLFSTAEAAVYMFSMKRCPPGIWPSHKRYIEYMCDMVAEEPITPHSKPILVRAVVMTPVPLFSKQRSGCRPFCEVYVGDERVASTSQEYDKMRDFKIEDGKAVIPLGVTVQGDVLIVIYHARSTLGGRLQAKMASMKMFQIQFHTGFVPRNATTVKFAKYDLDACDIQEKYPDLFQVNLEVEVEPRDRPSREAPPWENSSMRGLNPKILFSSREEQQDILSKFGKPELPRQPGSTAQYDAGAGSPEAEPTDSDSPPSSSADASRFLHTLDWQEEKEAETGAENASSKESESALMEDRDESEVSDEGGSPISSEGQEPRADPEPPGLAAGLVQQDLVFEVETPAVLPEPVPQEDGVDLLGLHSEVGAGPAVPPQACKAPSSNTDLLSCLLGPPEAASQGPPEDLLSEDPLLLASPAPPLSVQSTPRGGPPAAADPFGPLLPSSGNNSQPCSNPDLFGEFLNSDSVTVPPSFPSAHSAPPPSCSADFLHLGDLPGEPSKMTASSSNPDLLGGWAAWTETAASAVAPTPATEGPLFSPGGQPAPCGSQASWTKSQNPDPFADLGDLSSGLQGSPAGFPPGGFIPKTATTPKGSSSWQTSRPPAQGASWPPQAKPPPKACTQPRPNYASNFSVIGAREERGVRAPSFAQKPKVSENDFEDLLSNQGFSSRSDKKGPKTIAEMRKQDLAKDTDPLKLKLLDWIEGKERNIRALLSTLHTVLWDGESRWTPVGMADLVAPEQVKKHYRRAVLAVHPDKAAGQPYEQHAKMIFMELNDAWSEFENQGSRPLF", "assay": "Selectivity interaction (KinomeScan (DiscoverX)) EUB0001079a GAK", "conditions": "at 1 µM"}, "[5]": {"biological_target": "Proto-oncogene tyrosine-protein kinase ROS (Homo sapiens) (UniProt P08922)", "assay": "Selectivity interaction (Upstate Kinase Profiler service (Millipore)) EUB0000056c ROS1", "conditions": "at 1 µM"}, "[6]": {"biological_target": "T2, Serine/threonine-protein kinase D3 (Homo sapiens) (UniProt O94806)", "T2 sequence (whole entry)": "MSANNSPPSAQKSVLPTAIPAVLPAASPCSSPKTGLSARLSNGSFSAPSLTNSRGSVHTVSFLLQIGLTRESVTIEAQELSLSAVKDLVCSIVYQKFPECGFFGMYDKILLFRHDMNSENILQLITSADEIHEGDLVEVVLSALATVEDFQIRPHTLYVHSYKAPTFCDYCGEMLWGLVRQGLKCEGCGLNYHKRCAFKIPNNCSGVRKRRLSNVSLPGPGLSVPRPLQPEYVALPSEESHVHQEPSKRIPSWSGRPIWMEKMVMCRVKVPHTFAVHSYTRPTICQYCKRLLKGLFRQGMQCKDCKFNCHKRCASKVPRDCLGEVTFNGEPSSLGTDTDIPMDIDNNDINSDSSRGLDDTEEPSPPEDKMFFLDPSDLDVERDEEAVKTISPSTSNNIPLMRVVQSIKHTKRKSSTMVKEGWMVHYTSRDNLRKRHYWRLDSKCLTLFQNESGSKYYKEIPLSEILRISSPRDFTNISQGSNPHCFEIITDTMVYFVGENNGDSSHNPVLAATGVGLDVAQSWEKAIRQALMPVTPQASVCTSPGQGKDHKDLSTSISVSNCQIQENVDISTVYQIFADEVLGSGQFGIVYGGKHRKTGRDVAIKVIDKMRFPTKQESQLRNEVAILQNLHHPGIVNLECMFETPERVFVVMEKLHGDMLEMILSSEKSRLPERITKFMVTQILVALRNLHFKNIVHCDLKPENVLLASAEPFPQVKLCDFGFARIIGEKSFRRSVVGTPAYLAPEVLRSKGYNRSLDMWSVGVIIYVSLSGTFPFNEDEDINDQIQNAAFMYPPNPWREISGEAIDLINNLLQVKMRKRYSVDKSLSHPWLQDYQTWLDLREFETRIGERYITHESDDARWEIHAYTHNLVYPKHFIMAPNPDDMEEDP", "assay": "Selectivity interaction (KinomeScan (DiscoverX)) EUB0000607a PRKD3", "conditions": "at 10 µM"}, "[7]": {"biological_target": "Cyclin-dependent kinase 8 (Homo sapiens, UniProt P49336)", "sequence (P49336 whole entry)": "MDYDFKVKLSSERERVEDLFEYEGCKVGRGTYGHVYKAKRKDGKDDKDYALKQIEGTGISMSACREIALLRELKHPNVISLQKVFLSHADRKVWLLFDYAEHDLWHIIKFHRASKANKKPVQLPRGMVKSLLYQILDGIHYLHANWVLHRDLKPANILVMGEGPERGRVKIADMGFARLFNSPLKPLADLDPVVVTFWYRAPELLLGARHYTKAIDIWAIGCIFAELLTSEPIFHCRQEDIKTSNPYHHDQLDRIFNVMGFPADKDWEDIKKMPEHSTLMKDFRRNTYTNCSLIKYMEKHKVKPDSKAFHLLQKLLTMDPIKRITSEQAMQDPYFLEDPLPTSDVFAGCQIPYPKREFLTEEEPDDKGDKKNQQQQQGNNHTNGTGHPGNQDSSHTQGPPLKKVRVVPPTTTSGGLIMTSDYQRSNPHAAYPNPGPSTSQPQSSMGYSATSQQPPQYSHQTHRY", "assay": "Selectivity interaction (KinomeScan (DiscoverX)) EUB0000666a CDK8", "conditions": "at 10 µM"}, "[8]": {"biological_target": "MAP/microtubule affinity-regulating kinase 3 (Homo sapiens) (UniProt P27448)", "sequence (P27448 whole entry, looked up)": "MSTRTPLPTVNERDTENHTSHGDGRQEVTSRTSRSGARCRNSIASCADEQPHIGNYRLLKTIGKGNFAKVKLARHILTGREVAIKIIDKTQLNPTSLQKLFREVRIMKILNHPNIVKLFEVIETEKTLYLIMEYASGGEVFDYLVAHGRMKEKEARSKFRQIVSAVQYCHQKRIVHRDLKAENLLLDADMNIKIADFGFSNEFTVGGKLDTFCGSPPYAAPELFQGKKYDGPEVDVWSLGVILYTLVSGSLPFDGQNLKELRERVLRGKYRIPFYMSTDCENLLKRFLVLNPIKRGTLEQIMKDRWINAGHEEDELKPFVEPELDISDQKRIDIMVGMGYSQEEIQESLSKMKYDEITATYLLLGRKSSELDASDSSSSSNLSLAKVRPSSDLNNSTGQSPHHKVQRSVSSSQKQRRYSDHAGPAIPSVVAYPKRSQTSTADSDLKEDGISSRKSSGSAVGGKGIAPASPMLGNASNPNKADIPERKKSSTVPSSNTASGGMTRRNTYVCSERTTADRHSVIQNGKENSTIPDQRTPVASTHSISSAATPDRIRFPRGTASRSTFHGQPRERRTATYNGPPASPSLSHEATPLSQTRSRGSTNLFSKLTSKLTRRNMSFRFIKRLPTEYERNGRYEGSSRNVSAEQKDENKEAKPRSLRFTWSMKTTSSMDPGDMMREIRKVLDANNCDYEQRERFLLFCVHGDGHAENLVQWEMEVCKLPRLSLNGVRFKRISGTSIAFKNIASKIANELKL", "assay": "Selectivity interaction (KinomeScan (DiscoverX)) EUB0000666a MARK3", "conditions": "at 10 µM"}, "[9]": {"biological_target": "Serine/threonine-protein kinase 16 (Homo sapiens, UniProt O75716)", "sequence (O75716 whole entry)": "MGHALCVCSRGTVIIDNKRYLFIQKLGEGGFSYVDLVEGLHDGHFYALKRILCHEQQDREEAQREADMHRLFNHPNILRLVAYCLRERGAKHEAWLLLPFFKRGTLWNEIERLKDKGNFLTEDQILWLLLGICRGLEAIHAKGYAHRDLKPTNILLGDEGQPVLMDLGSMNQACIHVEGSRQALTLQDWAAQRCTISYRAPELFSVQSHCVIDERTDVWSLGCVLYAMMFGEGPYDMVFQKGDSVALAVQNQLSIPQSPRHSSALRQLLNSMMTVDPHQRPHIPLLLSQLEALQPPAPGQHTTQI", "assay": "Selectivity interaction (KinomeScan (DiscoverX)) EUB0000666a STK16", "conditions": "at 10 µM"}},
  "data": [
    {"smiles": "Cc1cnc(Nc2ccc(F)cc2Cl)nc1-c1c[nH]c(C(=O)N[C@H](CO)c2cccc(Cl)c2)c1", "values": [
      {"measurement": "% of inhibition", "setting": "[1]", "result": 7, "unit": "%"}
    ]},
    {"smiles": "CN(C)C/C=C/C(=O)Nc1ccc(C(=O)N2CCCC(Nc3ncc(Cl)c(-c4c[nH]c5ccccc45)n3)C2)cc1", "note": "(centres undefined)", "values": [
      {"measurement": "% of control", "setting": "[2]", "result": 96, "unit": "%"}
    ]},
    {"smiles": "Cc1cc(F)c(C(=O)Nc2cccc(-c3nncn3C(C)C)n2)cc1-n1cnc(C2CC2)c1", "values": [
      {"measurement": "% of control", "setting": "[3]", "result": 100, "unit": "%"}
    ]},
    {"smiles": "Nc1cnc(N2CCc3cc(S(=O)(=O)Nc4c(F)cc(Cl)cc4F)cc(N4CCCC4=O)c32)nc1", "note": "[TP-020n]", "values": [
      {"measurement": "% of control", "setting": "[4]", "result": 100, "unit": "%"}
    ]},
    {"smiles": "Cc1ccc(-c2ccc3c(ccc4sc5c(c43)NC[C@@H](C)NC5=O)n2)cn1", "values": [
      {"measurement": "% of inhibition", "setting": "[5]", "result": -15, "unit": "%"}
    ]},
    {"smiles": "CNC(=O)Nc1ccc(-c2nc(N3CC4CCC(C3)O4)c3cnn(C4CCC5(CC4)OCCO5)c3n2)cc1", "values": [
      {"measurement": "% of control", "setting": "[6]", "result": 100, "unit": "%"}
    ]},
    {"smiles": "O=C(NOC[C@H](O)CO)c1ccc(F)c(F)c1Nc1ccc(I)cc1F", "values": [
      {"measurement": "% of control", "setting": "[7]", "result": 100, "unit": "%"},
      {"measurement": "% of control", "setting": "[8]", "result": 91, "unit": "%"},
      {"measurement": "% of control", "setting": "[9]", "result": 99, "unit": "%"}
    ]}
  ]
}
